Assay results reported in PMC9388731, “Radiosynthesis and First Preclinical Evaluation of the Novel ^11C-Labeled FAP Inhibitor ^11C-FAPI: A Comparative Study of ^11C-FAPIs and (^68Ga) Ga-DOTA-FAPI-04 in a High–FAP-Expression Mouse Model” (Frontiers in Chemistry, 2022).
Several values for one entry are separate records, joined by “and”; a condition that tells them apart may be missing. Identical values can stand only once.

What was measured:
[1] = In vitro stability in PBS at 37°C (radio-HPLC); format: physicochemical; details: 150 min
Experimental: The radiochemical purities were analyzed by a radio-HPLC column (C18-B, 250 mm × 4.6 mm, 5 μm, 120 Å, Morhchem Technologies Inc., United States) (details presented in the Supplementary Material).

U87MG tumor xenografts = experiment: Biodistribution (ex vivo γ-counting of organs) in U87MG tumor xenograft mice; set-up: species or system nude mice (female BALB/c nu/nu); details: for Tumor uptake: i.v., mean ± SD, n = 3
Experimental: (§1) All animal experimental procedures and protocols were approved by the Institutional Animal Care and Use Committee (Renji Hospital, School of Medicine, Shanghai Jiao Tong University). For subcutaneous models, U87MG cells (2 × 10^6 cells in 100 μl PBS) were implanted into the right flank of female BALB/c nu/nu athymic mice to establish subcutaneous tumor xenografts. For orthotopic xenografts, U87MG cells (0.5 × 10^6 cells in […] PBS) were transplanted into the brains of female BALB/c nude mice (4–6 weeks old). The subcutaneous and orthotopic models were ready for PET imaging 3 weeks after tumor cell inoculation.
U87MG mice were injected with 3.7 MBq of each tracer and sacrificed at different times (30, 60, and 90 min p.i.; n = 3 for each time point). The main organs, including the kidney, intestine, liver, heart, lung, muscle, brain, and tumors, were isolated, weighed, and analyzed. The biodistribution in the [^68Ga] Ga-DOTA-FAPI-04 group (3.7 MBq) with approximately 100 μg of unlabeled DOTA-FAPI-04 was also evaluated for comparison. The radioactivity of the samples was determined using an automated γ-counter (Perkin-Elmer), and the uptake of the radiotracers in different organs/tissues was calculated and presented as percent of injected dose per Gram of tissue (%ID/g, mean ± SD).

[2] = test system: U87MG orthotopic xenograft glioma; experiment: Small-animal PET in the U87MG orthotopic xenograft glioma model; format: in vivo, nude mice (female BALB/c); details: 60 min p.i., n = 3
Experimental: as §1
Ga-DOTA-FAPI-04 were diluted or concentrated to a 74 MBq/mL. […] Ga-DOTA-FAPI-04 was intravenously injected into U87MG tumor-bearing nude mice (n = 3 for each group). For static PET imaging, the acquisition times were 30, 60, and 90 min postinjection (p.i.). Each static scan consists of CT scan and PET scan. The CT scan time is 20 s and the PET scan time is 10 min. […] Regions of interest (ROIs) in the tumor, liver, heart, kidney, brain, and lung were counted on the PET images to quantify the radioactive signals. […] PET data were reconstructed with three-dimensional ordered-subset expectation-maximization (3D-OSEM) algorithm with Monte-Carlo based accurate detector model and subsequently was analyzed with Avatar 1.2 software (Pingseng China).

FAP = test system: FAP; set-up: method as in PMID 32222810; details: ref (3); cited from earlier work
[3] = 60 min p.i. (time taken from the order of the sentence)
[4] = 90 min p.i. (time taken from the order of the sentence)
[5] = time printed as 'at 60 and 90 min p.i.', one value per probe

**Q.** For `[11CH3]Oc1ccc2nccc(C(=O)NCC(=O)N3CC(F)(F)C[C@H]3C#N)c2c1` [^11C-RJ1102, (S)-N-(2-(2-cyano-4,4-difluoropyrrolidin-1-yl)-2-oxoethyl)-6-(methoxy-11C) quinoline-4-carboxamide], which “radioactive purity after incubation in PBS (in vitro stability)” value [1] is on record?
**A.** over 99%

**Q.** What about the Brain uptake (U87MG tumor xenografts; 30 min p.i.) of the same compound?
**A.** 0.16 ± 0.01 %ID/g

**Q.** What about the Heart uptake (U87MG tumor xenografts; 30 min p.i.) of the same compound?
**A.** 0.78 ± 0.10 %ID/g

**Q.** And the Intestine uptake (U87MG tumor xenografts; 30 min p.i.)?
**A.** 5.08 ± 0.24 %ID/g

**Q.** And the Kidney uptake (U87MG tumor xenografts; 30 min p.i.)?
**A.** 1.84 ± 0.01 %ID/g

**Q.** And the Liver uptake (U87MG tumor xenografts; 30 min p.i.)?
**A.** 2.87 ± 0.12 %ID/g

**Q.** What about the Lung uptake (U87MG tumor xenografts; 30 min p.i.) of the same compound?
**A.** 0.65 ± 0.02 %ID/g

**Q.** What about the Muscle uptake (U87MG tumor xenografts; 30 min p.i.) of the same compound?
**A.** 0.74 ± 0.03 %ID/g

**Q.** And the “T/L ratio (tumor/liver)” value (U87MG tumor xenografts; 30 min p.i.)?
**A.** 0.60 ± 0.03

**Q.** And the “tumor-to-muscle (T/M) ratio” value (U87MG tumor xenografts; 30 min p.i.)?
**A.** 2.30 ± 0.32 and 2.30 ± 0.02

**Q.** What about the Tumor uptake (U87MG tumor xenografts; 30 min p.i.) of the same compound?
**A.** 1.71 ± 0.08 %ID/g

**Q.** And the Brain uptake (U87MG tumor xenografts; 60 min p.i.)?
**A.** 0.07 ± 0.03 %ID/g

**Q.** And the Heart uptake (U87MG tumor xenografts; 60 min p.i.)?
**A.** 0.26 ± 0.01 %ID/g

**Q.** What about the Intestine uptake (U87MG tumor xenografts; 60 min p.i.) of the same compound?
**A.** 2.63 ± 0.28 %ID/g

**Q.** And the Kidney uptake (U87MG tumor xenografts; 60 min p.i.)?
**A.** 0.48 ± 0.02 %ID/g

**Q.** What about the Liver uptake (U87MG tumor xenografts; 60 min p.i.) of the same compound?
**A.** 1.00 ± 0.05 %ID/g

**Q.** And the Lung uptake (U87MG tumor xenografts; 60 min p.i.)?
**A.** 0.25 ± 0.03 %ID/g

**Q.** What about the Muscle uptake (U87MG tumor xenografts; 60 min p.i.) of the same compound?
**A.** 0.20 ± 0.01 %ID/g

**Q.** What about the “T/L ratio (tumor/liver)” value (U87MG tumor xenografts; 60 min p.i.) of the same compound?
**A.** 0.62 ± 0.03

**Q.** And the “tumor-to-muscle (T/M) ratio” value (U87MG tumor xenografts; 60 min p.i.)?
**A.** 3.10 ± 0.14

**Q.** And the “T/K ratio (tumor/kidney)” value (U87MG tumor xenografts; [3])?
**A.** 1.29 ± 0.07

**Q.** What about the Tumor uptake (U87MG tumor xenografts; 60 min p.i.) of the same compound?
**A.** 0.62 ± 0.06 %ID/g

**Q.** And the Brain uptake (U87MG tumor xenografts; 90 min p.i.)?
**A.** 0.02 ± 0.01 %ID/g

**Q.** And the Heart uptake (U87MG tumor xenografts; 90 min p.i.)?
**A.** 0.07 ± 0.01 %ID/g

**Q.** What about the Intestine uptake (U87MG tumor xenografts; 90 min p.i.) of the same compound?
**A.** 1.10 ± 0.25 %ID/g

**Q.** What about the Kidney uptake (U87MG tumor xenografts; 90 min p.i.) of the same compound?
**A.** 0.13 ± 0.02 %ID/g

**Q.** What about the Liver uptake (U87MG tumor xenografts; 90 min p.i.) of the same compound?
**A.** 0.29 ± 0.02 %ID/g

**Q.** And the Lung uptake (U87MG tumor xenografts; 90 min p.i.)?
**A.** 0.06 ± 0.01 %ID/g

**Q.** What about the Muscle uptake (U87MG tumor xenografts; 90 min p.i.) of the same compound?
**A.** 0.04 ± 0.00 %ID/g

**Q.** What about the “T/L ratio (tumor/liver)” value (U87MG tumor xenografts; 90 min p.i.) of the same compound?
**A.** 0.62 ± 0.03

**Q.** And the “tumor-to-muscle (T/M) ratio” value (U87MG tumor xenografts; 90 min p.i.)?
**A.** 4.50 ± 0.50

**Q.** What about the “T/K ratio (tumor/kidney)” value (U87MG tumor xenografts; [4]) of the same compound?
**A.** 1.39 ± 0.06

**Q.** What about the Tumor uptake (U87MG tumor xenografts; 90 min p.i.) of the same compound?
**A.** 0.18 ± 0.02 %ID/g

**Q.** What about the “T/K ratio (tumor/kidney)” value (U87MG tumor xenografts; [5]) of the same compound?
**A.** 0.93 ± 0.04

**Q.** And the “tumor accumulation (small-animal PET)” value [2]?
**A.** 0.22 ± 0.02 ID%/g

**Q.** For `COc1ccc2nccc(C(=O)NCC(=O)N3CCC[C@H]3C#N)c2c1` [^11C-RJ1101, (S)-N-(2-(2-cyanopyrrolidin-1-yl)-2-oxoethyl)-6-(methoxy-11C)quinoline-4-carboxamide], which “radioactive purity after incubation in PBS (in vitro stability)” value [1] is on record?
**A.** over 99%

**Q.** And the Brain uptake (U87MG tumor xenografts; 30 min p.i.)?
**A.** 0.18 ± 0.02 %ID/g

**Q.** And the Heart uptake (U87MG tumor xenografts; 30 min p.i.)?
**A.** 0.59 ± 0.01 %ID/g

**Q.** And the Intestine uptake (U87MG tumor xenografts; 30 min p.i.)?
**A.** 4.95 ± 0.31 %ID/g

**Q.** And the Kidney uptake (U87MG tumor xenografts; 30 min p.i.)?
**A.** 1.28 ± 0.06 %ID/g

**Q.** And the Liver uptake (U87MG tumor xenografts; 30 min p.i.)?
**A.** 7.20 ± 1.71 %ID/g

**Q.** What about the Lung uptake (U87MG tumor xenografts; 30 min p.i.) of the same compound?
**A.** 0.56 ± 0.08 %ID/g

**Q.** What about the Muscle uptake (U87MG tumor xenografts; 30 min p.i.) of the same compound?
**A.** 0.42 ± 0.04 %ID/g

**Q.** And the “T/L ratio (tumor/liver)” value (U87MG tumor xenografts; 30 min p.i.)?
**A.** 0.19 ± 0.03

**Q.** What about the “tumor-to-muscle (T/M) ratio” value (U87MG tumor xenografts; 30 min p.i.) of the same compound?
**A.** 3.19 ± 0.06

**Q.** What about the Tumor uptake (U87MG tumor xenografts; 30 min p.i.) of the same compound?
**A.** 1.34 ± 0.10 %ID/g

**Q.** What about the Brain uptake (U87MG tumor xenografts; 60 min p.i.) of the same compound?
**A.** 0.02 ± 0.00 %ID/g

**Q.** And the Heart uptake (U87MG tumor xenografts; 60 min p.i.)?
**A.** 0.06 ± 0.01 %ID/g

**Q.** What about the Intestine uptake (U87MG tumor xenografts; 60 min p.i.) of the same compound?
**A.** 2.72 ± 0.45 %ID/g

**Q.** And the Kidney uptake (U87MG tumor xenografts; 60 min p.i.)?
**A.** 0.17 ± 0.02 %ID/g

**Q.** What about the Liver uptake (U87MG tumor xenografts; 60 min p.i.) of the same compound?
**A.** 0.24 ± 0.03 %ID/g

**Q.** And the Lung uptake (U87MG tumor xenografts; 60 min p.i.)?
**A.** 0.05 ± 0.01 %ID/g

**Q.** What about the Muscle uptake (U87MG tumor xenografts; 60 min p.i.) of the same compound?
**A.** 0.06 ± 0.01 %ID/g

**Q.** And the “T/L ratio (tumor/liver)” value (U87MG tumor xenografts; 60 min p.i.)?
**A.** 0.63 ± 0.04

**Q.** And the “tumor-to-muscle (T/M) ratio” value (U87MG tumor xenografts; 60 min p.i.)?
**A.** 2.26 ± 0.25

**Q.** What about the “T/K ratio (tumor/kidney)” value (U87MG tumor xenografts; [3]) of the same compound?
**A.** 0.89 ± 0.05

**Q.** And the Tumor uptake (U87MG tumor xenografts; 60 min p.i.)?
**A.** 0.15 ± 0.01 %ID/g

**Q.** What about the Heart uptake (U87MG tumor xenografts; 90 min p.i.) of the same compound?
**A.** 0.01 ± 0.00 %ID/g

**Q.** What about the Intestine uptake (U87MG tumor xenografts; 90 min p.i.) of the same compound?
**A.** 0.67 ± 0.02 %ID/g

**Q.** What about the Kidney uptake (U87MG tumor xenografts; 90 min p.i.) of the same compound?
**A.** 0.03 ± 0.00 %ID/g

**Q.** And the Liver uptake (U87MG tumor xenografts; 90 min p.i.)?
**A.** 0.06 ± 0.00 %ID/g

**Q.** And the Lung uptake (U87MG tumor xenografts; 90 min p.i.)?
**A.** 0.01 ± 0.00 %ID/g

**Q.** And the Muscle uptake (U87MG tumor xenografts; 90 min p.i.)?
**A.** 0.01 ± 0.00 %ID/g

**Q.** And the “T/L ratio (tumor/liver)” value (U87MG tumor xenografts; 90 min p.i.)?
**A.** 0.34 ± 0.06

**Q.** What about the “tumor-to-muscle (T/M) ratio” value (U87MG tumor xenografts; 90 min p.i.) of the same compound?
**A.** 2.00 ± 0.00

**Q.** What about the “T/K ratio (tumor/kidney)” value (U87MG tumor xenografts; [4]) of the same compound?
**A.** 0.67 ± 0.01

**Q.** What about the Tumor uptake (U87MG tumor xenografts; 90 min p.i.) of the same compound?
**A.** 0.02 ± 0.00 %ID/g

**Q.** What about the “T/K ratio (tumor/kidney)” value (U87MG tumor xenografts; [5]) of the same compound?
**A.** 1.05 ± 0.03

**Q.** Which IC50 (FAP) does the source give for `COc1ccc2nccc(C(=O)NCC(=O)N3CC(F)(F)C[C@H]3C#N)c2c1` [compound 4, (S)-N-(2-(2-cyano-4,4-difluoropyrrolidin-1-yl)-2-oxoethyl)-6-(methoxy)quinoline-4-carboxamide] here?
**A.** 8.5 ± 0.9 nM
